Experimental data as given in US11524021B2, “Use of ginsenoside M1 for manufacturing medicament for treating oral cancer” (priority 2018, dated 2022).

Legend:
[1] = tested on: human oral cancer cells SAS xenografts; test: Tumor growth in human oral cancer SAS xenograft mice; format: in vivo, BALB/c nude (nu/nu) mice; conditions: 5 successive days
Protocol: FIGS. 6A-6C show oral administration of ginsenoside M1 reduced human oral cancer growth in mice. Human oral cancer cell line SAS cells Xenografts mice with tumor size around 40˜60 mm^3 were given a daily oral administration of either ginsenoside M1 (30-90 mg/kg) or vehicle for 5 successive days. (FIG. 6A) The tumor volume was determined by measurement of the length (L) and width (W) of the tumor and calculated as tumor volume (mm3)=(L×W^2)/2. (FIG. 6B) The tumor weight was measured after the mice were scarified. (FIG. 6C) The body weight of mice was recorded. The data were expressed as mean±SD; n=6. ** and *** indicate a significant difference at the level of p<0.01 and p<0.001, respectively, compared to vehicle-control mice. (One-way ANOVA with Dunnett's multiple comparisons test).
FIGS. 7A-7C show subcutaneous (SC) injection of ginsenoside M1 reduced human oral cancer growth in mice. Human oral cancer cell line SAS cells Xenografts mice with tumor size around 40˜60 mm^3 were given a daily SC injection of either ginsenoside M1 (20 mg/kg) or vehicle for 5 successive days. (FIG. 7A) The tumor volume was determined by measurement of the length (L) and width (W) of the tumor and calculated as tumor volume (mm3)=(L×W^2)/2. (FIG. 7B) The tumor weight was measured after the mice were scarified. (FIG. 7C) The body weight of mice was recorded. The data were expressed as mean±SD; n=6. ** indicates a significant difference at the level of p<0.01, compared to vehicle-control mice. (One-way ANOVA with Dunnett's multiple comparisons test).
To evaluate the anti-cancer activity of ginsenoside M1 in vivo, human oral cancer xenografts were used. Six-week-old male congenital athymic BALB/c nude (nu/nu) mice were purchased from BioLASCO Taiwan Co., Ltd (Ilan, Taiwan), and housed in a room under controlled temperature (23±3° C.) and relative humidity (50±5%). Animal experiments were performed with the approval of the Institutional Animal Care and Use Committee of the National Ilan University (approval number: No. 106-13) according to the NIH Guide for the Care and Use of Laboratory Animals. Xenografts mice were established by subcutaneous (SC) injection of 2×10^6 human oral cancer cells SAS (in 75 μl PBS+75 μl Matrigel) on the backs of the nude mice. After the tumor has reached about 40˜60 mm^3 in size, the mice were randomized into six groups (six mice each): (1) oral vehicle control; (2) oral 30 mg/kg ginsenoside M1; (3) oral 60 mg/kg ginsenoside M1; (4) oral 90 mg/kg ginsenoside M1; (5) SC vehicle control; (6) SC 20 mg/kg ginsenoside M1. The mice were given a daily oral administration or SC injection of either vehicle or ginsenoside M1 for 5 successive days. The mice were scarified at 24 h after received the last dose of ginsenoside M1 or vehicle. The tumor volume (TV) was determined by measurement of the length (L) and width (W) of the tumor. The TV on day n (TVn) was calculated as TV (mm3)=(L×W^2)/2. The relative tumor volume on day n (RTVn) versus day 0 was expressed according to the following formula: RTVn=TVn/TV0. […] The data were expressed as mean±SD; n=6. ** and *** indicate a significant difference at the level of p<0.01 and p<0.001, respectively, compared to vehicle-control mice. (One-way ANOVA with Dunnett's multiple comparisons test).

[2] = tested on: human oral cancer cells OECM-1; test: Colony formation of OECM-1 cells; format: cell-based; conditions: 5˜20 μg/ml, 10 days
Protocol: (§1) FIGS. 4A-4B show ginsenoside M1 reduced the colony formation ability of human oral cancer cells. Human oral cancer cell line SAS cells (FIG. 4A) or OECM-1 cells (FIG. 4B) were incubated for 10 days with ginsenoside M1 (5˜20 μg/ml) or vehicle (0.1% DMSO). The cells were fixed in 4% ice-cold paraformaldehyde and stained with 0.1% crystal violet, and the colonies were counted. The data were expressed as mean±SD; n=4. * and *** indicate a significant difference at the level of p<0.05 and p<0.001, respectively, compared to vehicle-control cells. (One-way ANOVA with Dunnett's multiple comparisons test).
(§2) Plate 150 human oral cancer cells SAS or OECM-1 per 6-cm dish in 3 ml of culture medium and were grown overnight at 37° C. in a 5% CO2 incubator. The cells were incubated for 10 days with ginsenoside M1 (5˜20 μg/ml) or vehicle. The cells were changed for fresh medium containing the same concentration of ginsenoside M1 at day 5. The cells were fixed in 4% ice-cold paraformaldehyde for 15 min at […], and stained with 0.1% crystal violet 10 min at room temperature. […] The data were expressed as mean±SD; n=4. * and *** indicate a significant difference at the level of p<0.05 and p<0.001, respectively, compared to vehicle-control cells. (One-way ANOVA with Dunnett's multiple comparisons test).

[3] = tested on: human oral cancer cells SAS; test: Colony formation of SAS cells; format: cell-based; conditions: 5˜20 μg/ml, 10 days
Protocol: as §1, §2

[4] = tested on: human oral cancer SAS cells; test: Caspase-9 and caspase-3 activation, degradation of pro-caspases by Western blotting; format: cell-based; conditions: 10˜20 μg/ml, 24 h

SMILES: CC(C)=CCC[C@](C)(O[C@@H]1OC(CO)[C@@H](O)[C@@H](O)C1O)[C@H]1CC[C@]2(C)C1[C@H](O)CC1[C@@]3(C)CC[C@H](O)C(C)(C)C3CC[C@]12C (stereo partly drawn) [ginsenoside M1, 20-O-β-D-glucopyranosyl-20(S)-protopanaxadiol]
- tumor size compared to vehicle control group ([1]; SC injection 20 mg/kg daily): significantly reduced
- tumor weight compared to vehicle control group ([1]; SC injection 20 mg/kg daily): significantly reduced
- tumor size compared to vehicle control group ([1]; oral 30 mg/kg daily): did not significant reduce
- tumor weight compared to vehicle control group ([1]; oral 30 mg/kg daily): did not significant reduce
- tumor size compared to vehicle control group ([1]; oral 60 mg/kg daily): did not significant reduce
- tumor weight compared to vehicle control group ([1]; oral 60 mg/kg daily): did not significant reduce
- tumor size compared to vehicle control group ([1]; oral 90 mg/kg daily): significantly reduced
- colony formation ability of OECM-1 cells [2]: dose-dependently inhibited
- colony formation ability of SAS cells [3]: dose-dependently inhibited
- precursor of caspase-3 (pro-caspase-3) level [4]: decrease of the precursors of caspase-3 and caspase-9 in a dose-dependent manner
- precursor of caspase-9 (pro-caspase-9) level [4]: decrease of the precursors of caspase-3 and caspase-9 in a dose-dependent manner
